Columns and labels:
[1] = tested on: CHO cells expressing FVIII; assay type: cell-based, Chinese hamster
Procedure: In order to determine the effect of DDAO levels in cell growth, experiments were undertaken using CHO cells expressing FVIII with varying levels of DDAO equivalent to the contaminating amount in certain lots of commercial soy hydrolysate.
Cells from a bioreactor containing CHO cells in BAV serum free media, DMEM/HAM's F12 medium (11.76 g) supplemented with soya-peptone (4 g), ethanolamine (1.53 mg), L-glutamine (0.6 g), NaHCO3 (2.0 g) and SYNPERONIC (PLURONIC®) F68 (0.25 g) (see International Patent Publ. WO/2006/045438) were cultured with 4 g/L soy peptone in 60 mL Roux flasks. Roux flasks provide a static, unmoving environment for the cells to grow.

[2] = tested on: CHO cells; test: DDAO spiked into media at 0-50 ppm or equivalent ppb, in duplicate by serial dilution; cell growth and viability; assay type: cell-based, Chinese hamster
Text: In separate experiments, DDAO was spiked into media at differing concentrations between 0-50 ppm or equivalent ppb in duplicate using serial dilution of high DDAO containing-media to reduce error (FIGS. 3 and 4).

[3] = tested on: Bacillus bacteria; details: Bacillus bacteria in culture; Brycki et al.; cited from earlier work

CCCCCCCCCCCC[N+](C)(C)[O-] [DDAO, dodecyldimethylamine oxide]
DDAO level above which toxicity is shown ([1]; Chinese hamster): above 21.5 ppm
DDAO level up to which there is a positive effect on cell growth ([1]; ppm equivalent in the soy hydrolysate, Roux flasks): up to 20 ppm
DDAO level up to which there is a beneficial effect on cell growth ([2]; FIG. 3): 5-10 ppb
DDAO level up to which there is a beneficial effect on cell growth ([2]; FIG. 4, duplicate samples): 6-10 ppm
DDAO level above which the process of denitrification is slowed [3]: above 75 parts per million

Source: US9051544B2, “Method of enhancing cell growth using alkyl-amine-n-oxide (AANOx)” (BAXTER INTERNATIONAL INC., priority 2008, dated 2015)
